# Legend:
# Format in all cases: cell-based
# B. subtilis ATCC 6633 = assay: MIC by agar dilution, B. subtilis ATCC 6633; details: B. subtilis ATCC 6633, agar dilution, Mueller-Hinton agar; for MIC: Bacillus subtilis, ATCC6633, 17 h, read-out: Minimal Inhibitory Concentration (MIC)
# In short: (§1)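 Inoculum of 10^6 CFU per ml was spotted onto Mueller-Hinton agar plates carrying two-fold compound dilutions. Plates were held at 35°-37° C. for 17±1 hours before the minimum inhibitory concentration was recorded.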
# Staph. aureus ATCC 6538P = assay: MIC by agar dilution, Staph. aureus ATCC 6538P; details: Staph. aureus ATCC 6538P, agar dilution, Mueller-Hinton agar; for MIC: Staphylococcus aureus, ATCC6538P, 17 h, read-out: Minimal Inhibitory Concentration (MIC)
# In short: as §1
# Staph. aureus Smith = assay: MIC by agar dilution, Staph. aureus Smith; details: Mueller-Hinton agar; for MIC: Staphylococcus aureus, 17 h, read-out: Minimal Inhibitory Concentration (MIC)
# In short: as §1
# Staph. aureus C-57 = assay: MIC by agar dilution, Staph. aureus C-57; details: Mueller-Hinton agar; for MIC: Staphylococcus aureus, C57, 17 h, read-out: Minimal Inhibitory Concentration (MIC)
# In short: as §1
# Staph. aureus C-5113 = assay: MIC by agar dilution, Staph. aureus C-5113; details: Mueller-Hinton agar; for MIC: Staphylococcus aureus, C5113, 17 h, read-out: Minimal Inhibitory Concentration (MIC)
# In short: as §1
# Staph. aureus C-5216 = assay: MIC by agar dilution, Staph. aureus C-5216; details: Mueller-Hinton agar; for MIC: Staphylococcus aureus, C5216, 17 h, read-out: Minimal Inhibitory Concentration (MIC)
# In short: as §1
# [1] = test system: S. epidermidis ATCC 12228; assay: MIC by agar dilution, S. epidermidis ATCC 12228; details: S. epidermidis ATCC 12228, agar dilution, Mueller-Hinton agar; for MIC: Staphylococcus epidermidis, ATCC12228, 17 h, read-out: Minimal Inhibitory Concentration (MIC)
# In short: as §1
# Ent. aerogenes IFO 12979 = assay: MIC by agar dilution, Ent. aerogenes IFO 12979; details: Mueller-Hinton agar; for MIC: Klebsiella aerogenes, IFO12979, 17 h, read-out: Minimal Inhibitory Concentration (MIC)
# In short: as §1
# Ent. cloacae IFO 13535 = assay: MIC by agar dilution, Ent. cloacae IFO 13535; details: Ent. cloacae IFO 13535, agar dilution, Mueller-Hinton agar; for MIC: Enterobacter cloacae, IFO13535, 17 h, read-out: Minimal Inhibitory Concentration (MIC)
# In short: as §1
# E. coli NIHJ JC-2 = assay: MIC by agar dilution, E. coli NIHJ JC-2; details: E. coli NIHJ JC-2, agar dilution, Mueller-Hinton agar; for MIC: Escherichia coli, NIHJJC2, 17 h, read-out: Minimal Inhibitory Concentration (MIC)
# In short: as §1
# E. coli No. 29 = assay: MIC by agar dilution, E. coli No. 29; details: E. coli No. 29, agar dilution, Mueller-Hinton agar; for MIC: Escherichia coli, 17 h, read-out: Minimal Inhibitory Concentration (MIC)
# In short: as §1
# E. coli DY-1 = assay: MIC by agar dilution, E. coli DY-1; details: E. coli DY-1, agar dilution, Mueller-Hinton agar; for MIC: Escherichia coli, DY1, 17 h, read-out: Minimal Inhibitory Concentration (MIC)
# In short: as §1
# K. pneumoniae NCTC 9632 = assay: MIC by agar dilution, K. pneumoniae NCTC 9632; details: K. pneumoniae NCTC 9632, agar dilution, Mueller-Hinton agar; for MIC: Klebsiella pneumoniae, NCTC9632, 17 h, read-out: Minimal Inhibitory Concentration (MIC)
# In short: as §1
# M. morganii DY-1 = assay: MIC by agar dilution, M. morganii DY-1; details: M. morganii DY-1, agar dilution, Mueller-Hinton agar; for MIC: Morganella morganii, DY1, 17 h, read-out: Minimal Inhibitory Concentration (MIC)
# In short: as §1
# [2] = test system: Ps. aeruginosa ATCC 10145; assay: MIC by agar dilution, Ps. aeruginosa ATCC 10145; details: Mueller-Hinton agar; for MIC: Pseudomonas aeruginosa, ATCC10145, 17 h, read-out: Minimal Inhibitory Concentration (MIC)
# In short: as §1
# [3] = test system: Ps. aeruginosa NCTC 10490; assay: MIC by agar dilution, Ps. aeruginosa NCTC 10490; details: Mueller-Hinton agar; for MIC: Pseudomonas aeruginosa, NCTC10490, 17 h, read-out: Minimal Inhibitory Concentration (MIC)
# In short: as §1
# Ps. aeruginosa DY-2 = assay: MIC by agar dilution, Ps. aeruginosa DY-2; details: Ps. aeruginosa DY-2, agar dilution, Mueller-Hinton agar; for MIC: Pseudomonas aeruginosa, DY2, 17 h, read-out: Minimal Inhibitory Concentration (MIC)
# In short: as §1
# P. vulgaris NCTC 8313 = assay: MIC by agar dilution, P. vulgaris NCTC 8313; details: P. vulgaris NCTC 8313, agar dilution, Mueller-Hinton agar; for MIC: Proteus vulgaris, NCTC8313, 17 h, read-out: Minimal Inhibitory Concentration (MIC)
# In short: as §1
# Prov. stuartii IFO 12930 = assay: MIC by agar dilution, Prov. stuartii IFO 12930; details: Mueller-Hinton agar; for MIC: Providencia stuartii, IFO12930, 17 h, read-out: Minimal Inhibitory Concentration (MIC)
# In short: as §1
# [4] = test system: Ser. marcescens IFO 12648; assay: MIC by agar dilution, Ser. marcescens IFO 12648; details: Ser. marcescens IFO 12648, agar dilution, Mueller-Hinton agar; for MIC: Serratia marcescens, IFO12648, 17 h, read-out: Minimal Inhibitory Concentration (MIC)
# In short: as §1
SMILES,MIC (B. subtilis ATCC 6633),MIC (Staph. aureus ATCC 6538P),MIC (Staph. aureus Smith),MIC (Staph. aureus C-57),MIC (Staph. aureus C-5113),MIC (Staph. aureus C-5216),MIC [1],MIC (Ent. aerogenes IFO 12979),MIC (Ent. cloacae IFO 13535),MIC (E. coli NIHJ JC-2),MIC (E. coli No. 29),MIC (E. coli DY-1),MIC (K. pneumoniae NCTC 9632),MIC (M. morganii DY-1),MIC [2],MIC [3],MIC (Ps. aeruginosa DY-2),MIC (P. vulgaris NCTC 8313),MIC (Prov. stuartii IFO 12930),MIC [4],also measured
"CO/N=C(\C(=O)N[C@@H]1C(=O)N2C(C(=O)[O-])=C(C[n+]3ccn4cccc4c3C)CS[C@H]12)c1nc(N)sc1Cl [Ex. 56, 7-β-[(Z)-2-(2-amino-5-chlorothiazol-4-yl)-2-methoxyiminoacetamido]-3-(1-methylpyrrolo[1,2-a]-pyrazinium-2-yl)methyl-3-cephem-4-carboxylate]",0.2 µg/mL,0.05 µg/mL,0.39 µg/mL,3.13 µg/mL,0.78 µg/mL,0.78 µg/mL,0.1 µg/mL,0.1 µg/mL,0.78 µg/mL,0.2 µg/mL,0.05 µg/mL,0.05 µg/mL,0.1 µg/mL,0.39 µg/mL,1.56 µg/mL,0.78 µg/mL,3.13 µg/mL,0.012 µg/mL,0.012 µg/mL,0.2 µg/mL,
"CO/N=C(\C(=O)N[C@@H]1C(=O)N2C(C(=O)[O-])=C(C[n+]3ccn4ccc(Cl)c4c3)CS[C@H]12)c1csc(N)n1 [Ex. 33, 7-β-[(Z)-2-(2-aminothiazol-4-yl)2-methoxyiminoacetamido]-3-(8-chloropyrrolo[1,2-a]pyrazinium-2-yl)methyl-3-cephem-4-carboxylate]",0.2 µg/mL,0.2 µg/mL,0.2 µg/mL,25 µg/mL,0.78 µg/mL,0.2 µg/mL,0.05 µg/mL,0.025 µg/mL,0.05 µg/mL,0.012 µg/mL,≤ 0.006 µg/mL,≤ 0.006 µg/mL,0.012 µg/mL,≤ 0.006 µg/mL,0.78 µg/mL,0.2 µg/mL,1.56 µg/mL,≤ 0.006 µg/mL,≤ 0.006 µg/mL,0.012 µg/mL,
"CCON=C(C(=O)NC1C(=O)N2C(C(=O)[O-])=C(C[n+]3ccn4c(C(N)=O)ccc4c3)CSC12)c1csc(N)n1 (stereo not drawn) [Ex. 16, 7-β-[(Z)-2-(2-aminothiazol-4-yl)-2-ethoxyiminoacetamido]-3-(6-carbamoylpyrrolo[1,2-a]pyrazinium-2-yl)methyl-3-cephem-4-carboxylate]",0.1 µg/mL,0.2 µg/mL,0.78 µg/mL,12.5 µg/mL,1.56 µg/mL,1.56 µg/mL,0.05 µg/mL,0.025 µg/mL,0.78 µg/mL,0.1 µg/mL,0.05 µg/mL,0.025 µg/mL,0.025 µg/mL,0.025 µg/mL,1.56 µg/mL,0.39 µg/mL,6.25 µg/mL,0.012 µg/mL,0.025 µg/mL,0.1 µg/mL,
"CCO/N=C(\C(=O)N[C@@H]1C(=O)N2C(C(=O)[O-])=C(C[n+]3ccn4c(C(N)=O)ccc4c3C)CS[C@H]12)c1csc(N)n1 [Ex. 44, 7-β-[(Z)-2-(2-aminothiazol-4-yl)-2-ethoxyiminoacetamido]-3-(6-carbamoyl-1-methylpyrrolo[1,2-a]pyrazinium-2-yl)methyl-3-cephem-4-carboxylate]",,,,,,,,,,,,,,,,,,,,,Minimal Inhibitory Concentration (MIC) (B. subtilis ATCC 6633): 0.390 µg/mL; Minimal Inhibitory Concentration (MIC) (Staph. aureus ATCC 6538P): 0.200 µg/mL; Minimal Inhibitory Concentration (MIC) (Staph. aureus Smith): 0.780 µg/mL; Minimal Inhibitory Concentration (MIC) (Staph. aureus C-57): 100.000 µg/mL; Minimal Inhibitory Concentration (MIC) (Staph. aureus C-5113): 1.560 µg/mL; Minimal Inhibitory Concentration (MIC) (Staph. aureus C-5216): 1.560 µg/mL; Minimal Inhibitory Concentration (MIC) [1]: 0.100 µg/mL; Minimal Inhibitory Concentration (MIC) (Ent. aerogenes IFO 12979): 0.050 µg/mL; Minimal Inhibitory Concentration (MIC) (Ent. cloacae IFO 13535): 0.100 µg/mL; Minimal Inhibitory Concentration (MIC) (E. coli NIHJ JC-2): 0.050 µg/mL; Minimal Inhibitory Concentration (MIC) (E. coli No. 29): 0.025 µg/mL; Minimal Inhibitory Concentration (MIC) (E. coli DY-1): 0.025 µg/mL; Minimal Inhibitory Concentration (MIC) (K. pneumoniae NCTC 9632): 0.050 µg/mL; Minimal Inhibitory Concentration (MIC) (M. morganii DY-1): 0.100 µg/mL; Minimal Inhibitory Concentration (MIC) [2]: 3.130 µg/mL; Minimal Inhibitory Concentration (MIC) [3]: 0.780 µg/mL; Minimal Inhibitory Concentration (MIC) (Ps. aeruginosa DY-2): 6.250 µg/mL; Minimal Inhibitory Concentration (MIC) (P. vulgaris NCTC 8313): 0.050 µg/mL; Minimal Inhibitory Concentration (MIC) (Prov. stuartii IFO 12930): 0.012 µg/mL; Minimal Inhibitory Concentration (MIC) [4]: 0.050 µg/mL

# Reference: US5593984A, “Cephalosporin derivatives” (Yuhan Corporation, priority 1992, dated 1997)
